The test system of assay [1] is HL-60. Put plainly: Cytotoxicity against human HL60 cells assessed as growth inhibition at 10 uM after 24 to 48 hrs by MTT assay relative to control. The assay is classed as functional. Particulars: read-out: GI. For orientation: Tetrazolium assays rely on reduction of a dye to a coloured formazan, in cell work by metabolically active cells.
Assay [2] relates to HL-60. Put plainly: Cytotoxicity against human HL60 cells assessed as growth inhibition at 30 uM after 24 to 48 hrs by MTT assay relative to control. It is filed as functional. Particulars: read-out: GI.
Assay [3] concerns HL-60. Put plainly: Cytotoxicity against human HL60 cells assessed as growth inhibition at 100 uM after 24 to 48 hrs by MTT assay relative to control. Particulars: read-out: GI. It is filed as functional.
Assay [4] in a line: Cytotoxicity against human MIAPaCa2 cells assessed as growth inhibition at 10 uM after 24 to 48 hrs by MTT assay relative to control. Particulars: MIA PaCa-2, read-out: GI. The assay is classed as functional.
Assay [5] in a line: Cytotoxicity against human MIAPaCa2 cells assessed as growth inhibition at 30 uM after 24 to 48 hrs by MTT assay relative to control. It is filed as functional. Particulars: MIA PaCa-2, read-out: GI.
Assay [6] in a line: Cytotoxicity against human MIAPaCa2 cells assessed as growth inhibition at 100 uM after 24 to 48 hrs by MTT assay relative to control. The assay is classed as functional. Particulars: MIA PaCa-2, read-out: GI.
For assay [7], the system named is HCT-116. The assay can be described thus: Cytotoxicity against human HCT116 cells assessed as growth inhibition at 10 uM after 24 to 48 hrs by MTT assay relative to control. It is filed as functional. Particulars: read-out: GI.
The test system of assay [8] is HCT-116. The assay can be described thus: Cytotoxicity against human HCT116 cells assessed as growth inhibition at 30 uM after 24 to 48 hrs by MTT assay relative to control. It is filed as functional. Particulars: read-out: GI.
The test system of assay [9] is HCT-116. The assay can be described thus: Cytotoxicity against human HCT116 cells assessed as growth inhibition at 100 uM after 24 to 48 hrs by MTT assay relative to control. It is filed as functional. To be noted: read-out: GI.
For assay [10], the system named is HepG2. Put plainly: Cytotoxicity against human HepG2 cells assessed as growth inhibition at 10 uM after 24 to 48 hrs by MTT assay relative to control. The assay is classed as functional. Particulars: read-out: GI.
Assay [11] concerns HepG2. The assay can be described thus: Cytotoxicity against human HepG2 cells assessed as growth inhibition at 30 uM after 24 to 48 hrs by MTT assay relative to control. To be noted: read-out: GI. The assay is classed as functional.
Assay [12] relates to HepG2. Put plainly: Cytotoxicity against human HepG2 cells assessed as growth inhibition at 100 uM after 24 to 48 hrs by MTT assay relative to control. The assay is classed as functional. Particulars: read-out: GI.
Assay [13] concerns PC-3. The assay can be described thus: Cytotoxicity against human PC3 cells assessed as growth inhibition at 10 uM after 24 to 48 hrs by MTT assay relative to control. It is filed as functional. To be noted: read-out: GI.
For assay [14], the system named is PC-3. The assay can be described thus: Cytotoxicity against human PC3 cells assessed as growth inhibition at 30 uM after 24 to 48 hrs by MTT assay relative to control. The assay is classed as functional. Particulars: read-out: GI.
In assay [15] the test system is PC-3. Put plainly: Cytotoxicity against human PC3 cells assessed as growth inhibition at 100 uM after 24 to 48 hrs by MTT assay relative to control. The assay is classed as functional. Particulars: read-out: GI.
Assay [16] has as its system HL-60. Put plainly: cells. Particulars: Homo sapiens, HL-60, 48 h.
Description: Cytotoxicity against human HL60 cells assessed as inhibition of cell proliferation after 48 hrs by MTT assay
Another assay is described as follows: cells. Particulars: Homo sapiens, MIA PaCa-2, 48 h.
The test system of assay [17] is HCT-116. The assay can be described thus: cells. To be noted: Homo sapiens, HCT-116, 48 h.
Description: Cytotoxicity against human HCT116 cells assessed as inhibition of cell proliferation after 48 hrs by MTT assay
For assay [18], the system named is HepG2. Put plainly: cells. Particulars: Homo sapiens, HepG2, 48 h.
Description: Cytotoxicity against human HepG2 cells assessed as inhibition of cell proliferation after 48 hrs by MTT assay
Assay [19] relates to PC-3. Put plainly: cells. Particulars: Homo sapiens, PC-3, 48 h.
Description: Cytotoxicity against human PC3 cells assessed as inhibition of cell proliferation after 48 hrs by MTT assay

The record followed here is ChEMBL document CHEMBL3593172, “4-(N-Phenyl-N'-substituted benzenesulfonyl)-6-(4-hydroxyphenyl)quinolines as inhibitors of mammalian target of rapamycin” (Bioorg Med Chem, 2015).

`COc1ccc(-c2ccc3nccc(Nc4ccccc4)c3c2)cc1`: the inhibition of growth at 10 µM amounted to 32% in the assay on HL-60 [1]; 42% in assay [4]; 16% in the assay with HCT-116 [7]; 19% with HepG2 [10]; 40% in the assay on PC-3 [13]. Further, the inhibition of growth at 30 µM with HL-60 [2] was 69%; in [5] it was 53%; in the assay with HCT-116 [8], 45%; in the assay on HepG2 [11], 30%; in the assay with PC-3 [14] it was 46%. Also, the inhibition of growth at 100 µM with HL-60 [3] was 91%; in assay [6] it was 55%; with HCT-116 [9], 77%; in the assay on HepG2 [12] it was 36%; in the assay on PC-3 [15] it was 71%. The IC50 in the assay on HL-60 [16] is 18 µM; in “cells”, 26 µM; with HCT-116 [17] it was 40 µM; with HepG2 [18], more than 100 µM; in the assay with PC-3 [19], 39 µM.

With `O=C(c1ccccc1F)N(c1ccccc1)c1ccnc2ccc(-c3ccc(O)cc3)cc12`, the inhibition of growth at 10 µM in the assay on HL-60 [1] amounted to 55%; in assay [4], 36%; in the assay with HCT-116 [7], 26%; in the assay with HepG2 [10], 22%; in the assay on PC-3 [13], 27%. The inhibition of growth at 30 µM in the assay on HL-60 [2] is 93%; in assay [5], 90%; in the assay with HCT-116 [8], 32%; with HepG2 [11], 84%; in the assay with PC-3 [14] it was 65%. Further, the inhibition of growth at 100 µM was 94% with HL-60 [3]; 90% in [6]; 88% with HCT-116 [9]; 87% in the assay with HepG2 [12]; 88% in the assay on PC-3 [15]. The half-maximal inhibitory concentration (IC50) with HL-60 [16] is less than 10 µM; in the assay “cells”, 15 µM; in the assay with HCT-116 [17] it was 52 µM; in the assay with HepG2 [18], 18 µM; in the assay on PC-3 [19], 22 µM.

As to `O=S(=O)(c1ccc(Br)cc1)N(c1ccccc1)c1ccnc2ccc(-c3ccc(O)cc3)cc12`, the inhibition of growth at 10 µM in the assay on HL-60 [1] was 69%; in [4], 27%; with HCT-116 [7] it was 9%; in the assay on HepG2 [10] it was 1%; with PC-3 [13], 15%. In addition, the inhibition of growth at 30 µM was found to be 88% in the assay with HL-60 [2]; 76% in assay [5]; 23% in the assay with HCT-116 [8]; 73% in the assay on HepG2 [11]; 28% in the assay on PC-3 [14]. The inhibition of growth at 100 µM with HL-60 [3] was determined as 87%; in [6], 81%; in the assay on HCT-116 [9] it was 73%; in the assay on HepG2 [12] it was 80%; in the assay on PC-3 [15], 25%. For the same compound, the IC50 in the assay with HL-60 [16] is less than 10 µM; in the assay “cells”, 20 µM; in the assay with HCT-116 [17] it was 68 µM; with HepG2 [18], 22 µM; with PC-3 [19] it was more than 100 µM.

As for `O=S(=O)(c1ccc(F)cc1F)N(c1ccccc1)c1ccnc2ccc(-c3ccc(O)cc3)cc12`, the inhibition of growth at 10 µM in the assay on HL-60 [1] came out at 87%; in assay [4], 80%; with HCT-116 [7] it was 2%; with HepG2 [10], 87%; in the assay on PC-3 [13], 26%. Besides, the inhibition of growth at 30 µM in the assay on HL-60 [2] was 88%; in [5], 84%; in the assay on HCT-116 [8], 20%; with HepG2 [11], 89%; with PC-3 [14], 61%. The inhibition of growth at 100 µM in the assay on HL-60 [3] amounted to 89%; in [6], 87%; in the assay with HCT-116 [9], 58%; with HepG2 [12] it was 90%; in the assay on PC-3 [15], 73%. For the same compound, the 50% inhibitory concentration (IC50) with HL-60 [16] was less than 10 µM; in the assay “cells”, less than 10 µM; with HCT-116 [17], 80 µM; with HepG2 [18] it was less than 10 µM; with PC-3 [19] it was 25 µM.

Regarding `O=C(c1cccnc1Cl)N(c1ccccc1)c1ccnc2ccc(-c3ccc(O)cc3)cc12`, the inhibition of growth at 10 µM in the assay on HL-60 [1] amounted to 92%; in assay [4] it was 69%; in the assay with HCT-116 [7], 29%; with HepG2 [10], 19%; in the assay on PC-3 [13], 47%. Also, the inhibition of growth at 30 µM in the assay on HL-60 [2] turned out to be 94%; in assay [5] it was 89%; in the assay on HCT-116 [8], 88%; with HepG2 [11], 87%; in the assay on PC-3 [14] it was 90%. Besides, the inhibition of growth at 100 µM is 95% in the assay on HL-60 [3]; 89% in assay [6]; 89% with HCT-116 [9]; 88% with HepG2 [12]; 90% in the assay with PC-3 [15]. In addition, the IC50 in the assay on HL-60 [16] is less than 10 µM; in “cells” it was less than 10 µM; in the assay with HCT-116 [17] it was 16 µM; in the assay on HepG2 [18], 19 µM; in the assay on PC-3 [19], 11 µM.

As for `Nc1ccc(S(=O)(=O)N(c2ccccc2)c2ccnc3ccc(-c4ccc(O)cc4)cc23)cc1`, the inhibition of growth at 10 µM in the assay on HL-60 [1] was 66%; in assay [4], 64%; in the assay on HCT-116 [7] it was 33%; in the assay with HepG2 [10], 59%; in the assay with PC-3 [13], 30%. The inhibition of growth at 30 µM with HL-60 [2] worked out at 81%; in assay [5], 84%; in the assay with HCT-116 [8], 54%; in the assay on HepG2 [11] it was 70%; with PC-3 [14] it was 40%. The inhibition of growth at 100 µM in the assay with HL-60 [3] was 92%; in [6], 85%; in the assay with HCT-116 [9], 88%; in the assay with HepG2 [12] it was 71%; in the assay with PC-3 [15] it was 84%. In addition, the IC50 in the assay on HL-60 [16] stood at 5 µM; in the assay “cells”, 8 µM; in the assay on HCT-116 [17] it was 28 µM; with HepG2 [18], 9 µM; with PC-3 [19], 45 µM.

As for `Cc1c(C)c(C)c(S(=O)(=O)N(c2ccccc2)c2ccnc3ccc(-c4ccc(O)cc4)cc23)c(C)c1C`, the inhibition of growth at 10 µM came to 5% in the assay with HL-60 [1]; 16% in assay [4]; 14% in the assay on HCT-116 [7]; 1% in the assay on HepG2 [10]; 12% with PC-3 [13]. Moreover, the inhibition of growth at 30 µM with HL-60 [2] is 8%; in assay [5], 17%; in the assay with HCT-116 [8], 15%; in the assay on HepG2 [11], 2%; in the assay on PC-3 [14] it was 14%. Moreover, the inhibition of growth at 100 µM in the assay with HL-60 [3] worked out at 15%; in assay [6], 22%; in the assay on HCT-116 [9] it was 24%; in the assay with HepG2 [12], 10%; in the assay with PC-3 [15], 15%. The IC50 in the assay on HL-60 [16], in “cells”, with HCT-116 [17], in the assay on HepG2 [18] and with PC-3 [19] was more than 100 µM throughout.

Take `O=S(=O)(c1ccc2c(c1)OCCO2)N(c1ccccc1)c1ccnc2ccc(-c3ccc(O)cc3)cc12`: the inhibition of growth at 10 µM is 87% in the assay on HL-60 [1]; 79% in [4]; 17% in the assay with HCT-116 [7]; 46% in the assay on HepG2 [10]; 27% in the assay on PC-3 [13]. In addition, the inhibition of growth at 30 µM turned out to be 90% in the assay on HL-60 [2]; 84% in [5]; 26% in the assay on HCT-116 [8]; 87% with HepG2 [11]; 38% with PC-3 [14]. Also, the inhibition of growth at 100 µM with HL-60 [3] was 90%; in assay [6] it was 86%; in the assay with HCT-116 [9], 68%; in the assay on HepG2 [12], 88%; in the assay with PC-3 [15], 62%. In addition, the IC50 is less than 10 µM with HL-60 [16]; less than 10 µM in “cells”; 70 µM with HCT-116 [17]; 12 µM with HepG2 [18]; 65 µM with PC-3 [19].

For orientation: IC50 means the midpoint of a concentration-inhibition curve. Read a high IC50 as weaker potency.
